Source: patent publication US10011562B2, “Long-chain dimethylaniline derivative compounds, their preparation methods, self-assembled textures, and uses thereof” (WEST CHINA HOSPITAL, SICHUAN UNIVERSITY, priority 2014, dated 2018)

Assays:
Type in all cases: in vivo
[1] = tested on: sciatic nerve of rats; assay: First local anesthetic experiment of rats: blocking of sciatic nerve, motor function by hindlimb postural extensor thrust (PET)
Experimental: (§1) Selected above micelle, positive control lidocaine, and negative control normal saline were respectively administrated to 28 groups of test rats fully adapted to experiment environment, with five rats for each group. The administration dosage is: the concentration of lidocaine group being 2% aqueous solution (84 mmol/L), and the concentration of tested drug being 5 mmol/L. The injection volume of each rat receiving drugs or the control was 0.2 ml, and the drug or the control was injected to close to sciatic nerve of rats by guidance of nerve locator.
(§2) The tested rats were placed on bench board and allowed to inhale 5% isoflurane. After body-righting reflex abolition, rats are allowed to continue inhaling 1.5% isoflurane, to keep anesthesia. Keeping left-lateral position, their corresponding injection area sacrococygeal region was shaved, then routine sterilization and draping were performed. Two osseous anatomic landmarks greater trochanter of femur and tuber is chiadicum were laid hands, and the middle point of this line was the needle insertion position. If skin was taut, 1 ml injector was inserted along perpendicular of skin. When needlepoint reached hucklebone, the insertion was finished. […] Needle was lifted, and is oflurane was shut off. Animals were placed in observation cage until they naturally awakened.
(§3) The hindlimb postural extensor thrust (PET) was used for evaluation. Rats were lifted vertically and their hindlimbs of injection side stepped on the top of electronic balance. At this time, the postural extensor thrust was shown as the value of balance. When limbs were completely paralytic, the digital reading was the weight of limbs, about 20 g. If the test value was more than half of the difference between the baseline and the limbs weight, the motor function was taken as recovery; If less than or equal to half of the difference, the motor function was taken as deprivation.
(§4) The interval between completion of injection and the time point that the motor function was firstly deprivated was the time of effective motor blocking; the interval between completion of injection and the time point that the motor function was firstly recovered was the time of ineffective motor blocking; their difference was the hold time of motor blocking.

[2] = tested on: sciatic nerve of rats; assay: First local anesthetic experiment of rats: blocking of sciatic nerve, mechanical withdrawal threshold (VFH, von Frey filaments)
Experimental: as §1, §2
(§5) Rats were placed in transparent observation cages with a bottom of smooth metal sieve plate, and the corrected von frey filament was used to stimulate the foot lateral skin of rats (innervated region of sciatic nerve) from down to up. […] For each stimulation, slightly bent of filament was used as a standard, or rats moved aside this side of limbs. Otherwise, once the stimulation time reached 3 s, operator stopped stimulating. Three tests were carried out for each time point, and the interval between two tests was 5 min, to avoid sensibilization.
(§6) If the mechanical withdrawal threshold value was more than 60 g, the nerve blocking was considered as effective.

[3] = tested on: sciatic nerve of rats; assay: Third local anesthetic experiment of rats: hydrogels embedded near the sciatic nerve, mechanical withdrawal threshold (VFH)
Experimental: as §5, §6
(§7) 25 mmol/L transparent uniform hydrogels of products obtained in Examples 7-10 and 13-32 were prepared under sterile conditions, as the method of Example 45, and kept for use.
(§8) Above hydrogels, positive control lidocaine, and negative control normal saline were respectively administrated to 35 groups of test rats fully adapted to experiment environment, with five rats for each group. The administration dosage is: the concentration of lidocaine group being 2% aqueous solution (84 mmol/L). The injection volume of each rat receiving drugs or the control was […], and the control was injected to near the sciatic nerve of rats by guidance of nerve locator; by surgery, the gels were embedded near the sciatic nerve of experimental rats after general anesthesia using sevoflurane. Specific procedures and the evaluation criterion for local anesthetic effect were same as mentioned in Example 60.

[4] = tested on: sciatic nerve of rats; assay: Third local anesthetic experiment of rats: hydrogels embedded near the sciatic nerve, motor function (PET)
From the text: as §3, §4, §7, §8

[5] = rats, 0.2 ml injected close to sciatic nerve, tested drug 5 mmol/L solution (micelle), lidocaine 2% (84 mmol/L)
[6] = rats, 0.2 ml injected close to sciatic nerve, tested drug 5 mmol/L solution (micelle), lidocaine 2% (84 mmol/L), threshold above 60 g
[7] = rats, 0.2 ml injected close to sciatic nerve, tested drug 5 mmol/L solution (micelle), lidocaine 2% aqueous solution (84 mmol/L)
[8] = rats, 25 mmol/L hydrogel, 0.2 g embedded by surgery near sciatic nerve, lidocaine 2% (84 mmol/L) injected

| SMILES | The hold time of motor blocking [1, 5] | The hold time of sensation blocking [2, 6] | Effective local anesthetic time [2, 7] | The hold time of motor blocking ([1]; rat, in vivo) | Effective local anesthetic time ([3]; rat, in vivo) | The hold time of sensation blocking ([3]; rat, in vivo) | The hold time of motor blocking ([4]; rat, in vivo) | Effective local anesthetic time ([2]; rat, in vivo) | The hold time of sensation blocking ([2]; rat, in vivo) | Effective local anesthetic time [3, 8] | The hold time of sensation blocking [3, 8] | The hold time of motor blocking [4, 8] |
| --- | --- | --- | --- | --- | --- | --- | --- | --- | --- | --- | --- | --- |
| CC[N+](CC)(CCOC(C)=O)CC(=O)Nc1c(C)cccc1C [Example6product] | 72 h | 72 h | 20 min | – | – | – | – | – | – | – | – | – |
| CCCCCCCCCCCCOC(=O)OCC[N+](CC)(CC)CC(=O)Nc1c(C)cccc1C [Example27product] | – | – | – | 80 h | 90 min | 83 h | 76 h | 20 min | 78 h | – | – | – |
| CCCCCCCCOC(=O)OCC[N+](CC)(CC)CC(=O)Nc1c(C)cccc1C [Example17product] | – | – | – | 62 h | 63 min | 85 h | 82 h | 16 min | 82 h | – | – | – |
| CCCCCCCCCCCC(=O)OCC[N+](CC)(CC)CC(=O)Nc1c(C)cccc1C [Example9product] | – | – | – | 80 h | 75 min | 98 h | 80 h | 20 min | 80 h | – | – | – |
| CCCCCCCCCCCCCCCCOC(=O)OCC[N+](CC)(CC)CC(=O)Nc1c(C)cccc1C [Example29product] | – | – | – | 80 h | 92 min | 86 h | 84 h | 20 min | 78 h | – | – | – |
| CCCCCCCCCCOC(=O)OCC[N+](CC)(CC)CC(=O)Nc1c(C)cccc1C [Example24product] | – | – | – | 75 h | 78 min | 87 h | 79 h | 20 min | 82 h | – | – | – |
| CCCCCCCCOC(=O)OCC[N+](CC)(CC)CC(=O)Nc1c(C)cccc1C [Example16product] | – | – | – | 62 h | 56 min | 82 h | 82 h | 18 min | 85 h | – | – | – |
| CCOC(=O)OCC[N+](CC)(CC)CC(=O)Nc1c(C)cccc1C [Example11product] | – | – | – | 82 h | – | – | – | 20 min | 82 h | – | – | – |
| CCCC(=O)OC[N+](CC)(CC)CC(=O)Nc1c(C)cccc1C [Example4product] | – | – | – | 8 h | – | – | – | 20 min | 8 h | – | – | – |
| CCCCCCCOC(=O)OCC[N+](CC)(CC)CC(=O)Nc1c(C)cccc1C [Example14product] | – | – | – | 70 h | 45 min | 81 h | 76 h | 15 min | 82 h | – | – | – |
| CCCCCCCCCCCCCCCC(=O)OCC[N+](CC)(CC)CC(=O)Nc1c(C)cccc1C [Example8product] | 70 h | 73 h | 18 min | – | – | – | – | – | – | 70 min | 92 h | 82 h |
| CC[N+](CC)(COC(=O)C(C)(C)C)CC(=O)Nc1c(C)cccc1C [Example5product] | – | – | – | 8 h | – | – | – | 18 min | 8 h | – | – | – |
| CCCCCCCCCOC(=O)OCC[N+](CC)(CC)CC(=O)Nc1c(C)cccc1C [Example19product] | – | – | – | 56 h | 65 min | 90 h | 88 h | 16 min | 82 h | – | – | – |
| CCCCCCCCCCCC(=O)OCC[N+](CC)(CC)CC(=O)Nc1c(C)cccc1C [Example7product] | 70 h | 75 h | 20 min | – | – | – | – | – | – | 60 min | 90 h | 80 h |
| CCCCCCCCCCCCOC(=O)OCC[N+](CC)(CC)CC(=O)Nc1c(C)cccc1C [Example26product] | – | – | – | 80 h | 88 min | 81 h | 77 h | 20 min | 80 h | – | – | – |
| CCCCCCCCCCCCCCOC(=O)OCC[N+](CC)(CC)CC(=O)Nc1c(C)cccc1C [Example28product] | – | – | – | 79 h | 88 min | 83 h | 79 h | 20 min | 76 h | – | – | – |
| CCCCCCOC(=O)OCC[N+](CC)(CC)CC(=O)Nc1c(C)cccc1C [Example13product] | – | – | – | 79 h | 45 min | 80 h | 76 h | 19 min | 79 h | – | – | – |
| CCCCCCCOC(=O)OCC[N+](CC)(CC)CC(=O)Nc1c(C)cccc1C [Example15product] | – | – | – | 66 h | 53 min | 81 h | 79 h | 17 min | 81 h | – | – | – |
| CCCCOC(=O)OCC[N+](CC)(CC)CC(=O)Nc1c(C)cccc1C [Example12product] | – | – | – | 80 h | – | – | – | 20 min | 80 h | – | – | – |
| CCCCCCCCCOC(=O)OCC[N+](CC)(CC)CC(=O)Nc1c(C)cccc1C [Example22product] | 61 h | 81 h | 18 min | – | – | – | – | – | – | 78 min | 95 h | 87 h |
| CCCCCCCCCOC(=O)OCC[N+](CC)(CC)CC(=O)Nc1c(C)cccc1C [Example18product] | – | – | – | 60 h | 60 min | 83 h | 79 h | 16 min | 88 h | – | – | – |
| CCCCCCCCCCCCCCCCOC(=O)OCC[N+](CC)(CC)CC(=O)Nc1c(C)cccc1C [Example30product] | – | – | – | 78 h | 95 min | 87 h | 86 h | 19 min | 74 h | – | – | – |
| CCCCCCCCCOC(=O)OCC[N+](CC)(CC)CC(=O)Nc1c(C)cccc1C [Example21product] | 60 h | 82 h | 18 min | – | – | – | – | – | – | 75 min | 88 h | 79 h |
| CCCCCCCCCCCOC(=O)OCC[N+](CC)(CC)CC(=O)Nc1c(C)cccc1C [Example25product] | – | – | – | 80 h | 82 min | 83 h | 79 h | 20 min | 81 h | – | – | – |
